Test results as given in patent US20230270816A1, “COMBINATION OF ANTINEOPLASTIC ANTIBIOTICS AND BCL-2 INHIBITORS FOR THE TREATMENT OF NPM-1-DRIVEN ACUTE MYELOID LEUKEMIA (AML)” (INSERM (INSTITUTE NATIONAL DE LA SANTÉ ET DE LA RECHERCHE …, priority 2020, published 2023).
Where two headings read alike, the source gives them in different places. Starred links: 1 amine or outer side, 2 acyl side, 3 side chain; linkers in the order of their positions; H or OH if unused. Positions of bridges follow the written chain, without caps; N, C: chain ends. Non-standard residues stand in square brackets, D forms with d. Residues, ends and D or L forms follow the SMILES beside them. Chains are numbered I, II in the order given. Actinocin(9to1) = Cc1c2oc3c(C)ccc(C(=O)[*:1])c3nc-2c(C(=O)[*:2])c(N)c1=O; NMeV = CN[C@H](C(=O)O)C(C)C; Sar = CNCC(=O)O

What was measured:
PML NBs = test: PML nuclear body (NB) reformation ex vivo; format: cell-based; conditions: for effect of ROS scavenger on ActD NB-restoration: AML2-NPM1c cells
Text: (§1) Conversely, we used Thenoyl-trifluoroacetone (TTFA) a well-characterized inhibitor of mitochondrial complex II and major inducer of ROS.

TP53 [1] = test: Doxorubicin mitochondrial rounding and TP53 activation; format: cell-based
Text: Targeting mitochondrial function by antibiotics was proposed as a therapeutic option for cancer^35,36 and mitochondrial status modulates chemotherapy response^37,38. Actinomycin D drives mitochondrial alterations prior to detectable activation of the ribosomal or DNA damage checkpoints. Actinomycin D inhibits complex II activity, which may reflect its structural similarity with FAD, one of its electron transporters. This may explain how ActD induces ROS, immediate early response genes, sensitizes cells to apoptosis or initiates immunogenic cell death^39. Complex II is important in hematopoietic progenitors^40, and regulated by PML^41, contributing to ActD therapeutic index in AML blasts. In vivo, ActD triggered features of mitochondria-induced senescence^26. Downstream of acute mitochondrial stress, our experiments reveal a key role of ROS signalling and PML/TP53 senescence (data not shown), drawing an unexpected similarity with acute promyelocytic leukemia, where NBs reformation drive response to arsenic therapy^12,42. In that respect, complex II poisoning has activity in APL models^43. […] Clinically, as both antineoplastic antibiotics (e.g. ActD) and BCL-2 inhibitors (e.g. Venetoclax) have remarkable clinical activity in NPM1c-AMLs, the dramatic synergy outlined here should rapidly be evaluated in patients.

AML2-NPM1c cells = test: Growth of isogenic AML2-NPM1c / AML2-NPM1 cells; format: cell-based; conditions: AML2-NPM1c vs AML2-NPM1 cells; inhibition of JAK1/2 signalling
Text: TFAM reduction may reflect transcriptional down-regulation of PGC1A by IFN signalling^16. Importantly, stable NPM1c expression drove PGC1α hyperacetylation resulting in its functional inactivation, possibly through PML NB downregulation (data not shown)^10. These altered mitochondria and release of mtDNA into the cytoplasm activate multiple downstream intracellular stress pathway, particularly IFN and NFKB targets (data not shown), at least in part through cGAS (cyclic GMP-AMP synthase) activation and cGAMP production (data not shown). Other stress pathways, such as oxidative stress or unfolded protein response were also activated (data not shown), resulting in decreased protein synthesis (data not shown). Western blot analyses comparing AML2-NPM1c to AML2-NPM1 cells validated activation of multiple stress pathways by the NPM1c oncogene, including the up-regulation of key TP53-repressed metabolic enzymes (data not shown). As expected, these mitochondrial alterations yielded decreased ATP/ADP+AMP or GTP/GDP+GMP ratios, reflecting metabolic stress (data not shown). Stress responses could directly or indirectly favour leukaemogenesis^20-22. […] These mitochondrial defects may constitute targetable intrinsic weaknesses and, for example, account for the exquisite clinical sensitivity of NPM1c-AMLs to Bcl2 antagonists^23.

AML3 cells [2] = test: Mitochondrial network and function in AML3 cells; format: cell-based
Text: as §1

AML3 cells [3] = test: Senescence markers and clonogenic activity in AML3 cells; format: cell-based; conditions: for clonogenic activity: AML3 cells
Text: as §1

complex II = target: T1, complex II (Homo sapiens, UniProt P31040); test: Electron transport chain complex activity; format: biochemical; conditions: but not complex I or IV; primarily in NPM1c-expressing cells
T1 construct: endogenous in cells; host or cells: NPM1c-expressing cells (not further specified; the same paragraph mentions AML3, AML2-NPM1c and NPM1c-ES cells)

[4] = system: primary human NPM1c-AML blasts; test: Immune-deficient mice xenografted with primary human NPM1c-AML blasts; format: in vivo
Text: FIG. 2: ActD enhances Venetoclax anti-leukaemic effects. Response to ActD and/or Venetoclax in a transplantable AML model initiated by NPM1c+IDH1^R132H mutation. A, GFP abundance in bone marrow samples collected at treatment interruption and B, survival curve, n=2. C, abundance of human AML cells in xenografted mice treated for two weeks. Combined therapy induces AML regression.
(§2) We first assessed ActD response in primary cells.
(§3) We therefore explored the ActD/Venetoclax interaction in different NPM1c-driven AML models in vivo. […] Thus, ActD and Venetoclax dramatically synergized to clear AMLs in vivo.

murine NPM1c-driven AML = test: Murine NPM1c-driven AML model; conditions: mouse, in vivo
Text: as §2, §3

leukemic blasts = test: AML patient treated with a single ActD course; format: in vivo
TP53 [5] = system: TP53
NPM1c-AML = conditions: Half of NPM1c-AML patients; single agent; cited from earlier work
[6] = leukemic blasts from peripheral blood

T1 sequence (P31040 43-664): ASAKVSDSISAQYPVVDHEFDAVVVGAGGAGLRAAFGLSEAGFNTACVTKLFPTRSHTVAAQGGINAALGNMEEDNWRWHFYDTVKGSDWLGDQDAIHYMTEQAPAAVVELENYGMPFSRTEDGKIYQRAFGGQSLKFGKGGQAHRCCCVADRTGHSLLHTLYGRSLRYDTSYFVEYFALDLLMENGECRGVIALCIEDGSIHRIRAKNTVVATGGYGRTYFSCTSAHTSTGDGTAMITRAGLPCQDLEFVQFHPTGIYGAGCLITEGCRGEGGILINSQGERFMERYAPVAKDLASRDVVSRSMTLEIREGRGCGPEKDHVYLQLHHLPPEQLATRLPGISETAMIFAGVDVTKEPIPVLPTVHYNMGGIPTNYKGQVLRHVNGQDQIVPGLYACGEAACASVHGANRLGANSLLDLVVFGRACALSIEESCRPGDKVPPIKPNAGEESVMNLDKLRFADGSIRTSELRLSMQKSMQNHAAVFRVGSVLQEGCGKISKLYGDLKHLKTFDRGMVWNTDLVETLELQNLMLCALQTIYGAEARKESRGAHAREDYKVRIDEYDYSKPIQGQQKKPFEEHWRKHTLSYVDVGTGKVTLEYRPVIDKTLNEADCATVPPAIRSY
T1 sequence (P21912 29-280 partner): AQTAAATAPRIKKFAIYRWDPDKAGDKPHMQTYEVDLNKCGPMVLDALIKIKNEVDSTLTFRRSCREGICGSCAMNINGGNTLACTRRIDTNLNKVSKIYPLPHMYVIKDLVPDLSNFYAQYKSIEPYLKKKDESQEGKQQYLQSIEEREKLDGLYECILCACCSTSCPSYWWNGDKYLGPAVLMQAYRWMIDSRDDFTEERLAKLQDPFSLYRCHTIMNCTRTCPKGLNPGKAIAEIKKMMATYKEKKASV
T1 sequence (Q99643 30-169 partner): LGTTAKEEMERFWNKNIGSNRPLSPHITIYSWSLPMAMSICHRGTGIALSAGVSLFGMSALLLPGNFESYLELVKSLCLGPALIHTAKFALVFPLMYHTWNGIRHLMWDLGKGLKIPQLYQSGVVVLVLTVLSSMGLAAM
T1 sequence (O14521 57-159 partner): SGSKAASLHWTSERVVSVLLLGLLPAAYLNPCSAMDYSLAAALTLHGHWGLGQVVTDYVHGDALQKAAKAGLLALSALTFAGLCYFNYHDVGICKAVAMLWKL

With `CC(=O)N[C@@H](CS)C(=O)O` [N-acetyl cysteine] the “effect of ROS scavenger on ActD NB-restoration” value (PML NBs) was “completely blocked”.
For `N[C@@H](CCC(=O)N[C@@H](CS)C(=O)NCC(=O)O)C(=O)O` [glutathione], the “effect of ROS scavenger on ActD NB-restoration” value (PML NBs) was “completely blocked”.
In the case of `COc1cccc2c1C(=O)c1c(O)c3c(c(O)c1C2=O)C[C@@](O)(C(=O)CO)C[C@@H]3O[C@H]1C[C@H](N)[C@H](O)[C@H](C)O1` [Doxorubicin], the TP53 activation (TP53 [1]) is reported as “PML-dependent, NPM1c-enhanced and NAC-reversible TP53 activation” and the mitochondrial morphology (TP53 [1]) is reported as “triggered immediate mitochondrial rounding”.
In the case of `N#CCNC(=O)c1ccc(-c2ccnc(Nc3ccc(N4CCOCC4)cc3)n2)cc1` [CYT387], the growth (AML2-NPM1c cells) is reported as “inhibited growth, more potently in AML2-NPM1c than in AML2-NPM1 cells”.
In the case of `O=C(CC(=O)C(F)(F)F)c1cccs1` [TTFA, Thenoyl-trifluoroacetone], the mitochondrial superoxide (AML3 cells [2]; AML3 cells) is reported as “massively induced mitochondrial superoxide”, the NB formation (PML NBs; NPM1c-transfected stable GFP-PML-III MEFs) is reported as “restored NB formation” and the clonogenic activity (AML3 cells [3]) is reported as “decreased clonogenic activity”.
In the case of `Cc1c2oc3c(C)ccc(C(=O)N[C@@H]4C(=O)N[C@H](C(C)C)C(=O)N5CCC[C@H]5C(=O)N(C)CC(=O)N(C)[C@@H](C(C)C)C(=O)O[C@@H]4C)c3nc-2c(C(=O)N[C@@H]2C(=O)N[C@H](C(C)C)C(=O)N3CCC[C@H]3C(=O)N(C)CC(=O)N(C)[C@@H](C(C)C)C(=O)O[C@@H]2C)c(N)c1=O` [ActD, actinomycin D] (I: T[dV]P[Sar][NMeV] / II: T[dV]P[Sar][NMeV]; ester I:1-I:C, II:1-II:C; linker I:N-II:N via Actinocin(9to1)), the mitochondrial network (AML3 cells [2]; AML3 and NPM1c-ES cells, as early as 1h) is reported as “fragmented the mitochondrial network”, the “complex II activity” value (complex II) is reported as “further inhibited the basal low level of complex II” and the “PML NB reformation” value (PML NBs; AML2-NPM1c, AML3 cells or NPM1c-transfected MEFs) is reported as “very rapid NB reformation”. For the same compound, the “PML NB restoration” value (PML NBs; primary NPM1c-AML blasts treated ex vivo) was “PML NB restoration was also observed”, the clonogenic activity (AML3 cells [3]) was “loss of clonogenic activity” and the “senescence signs (TP53 activation, p21, Serpine-1, cGAMP, SA-β-Gal)” value (AML3 cells [3]; NPM1c-positive AML3 cells) was “multiple signs of senescence”. The leukemic burden ([4]; after 5 days of ActD therapy) was “dramatically reduced the leukemic burden”, the “stabilization of human TP53 vs mouse Trp53” value ([4]; two xenografted mice) was “rapidly triggered selective stabilization of human TP53” and the “AML response with leukaemia-selective TP53 activation” value (murine NPM1c-driven AML) was “AML regression and blast differentiation”. For the same compound, the blast decrease (leukemic blasts; after a single course of daily ActD injections for 5 days) was 10^4 fold, the “completion of in vivo reformation of PML NBs” value (leukemic blasts; [6]) was ≤ 12 h and the “start of in vivo reformation of PML NBs” value (leukemic blasts; [6]) was 6 h. The TP53 activation (TP53 [5]; AML3 cells, ex vivo, 5 nM) was “triggered rapid TP53 activation”, the TP53 stabilization (TP53 [5]; normal bone marrow progenitors in vivo or ex vivo, human or mouse primary fibroblasts (WI-38, MEFs) ex vivo, low doses) was “no significant TP53 stabilization” and the clinical response (NPM1c-AML) was “dramatic responses”.
With venetoclax the mitochondrial effects (AML3 cells [2]; AML3 cells, Venetoclax alone) was “induced mitochondrial fragmentation, reduction of mitochondrial membrane potential, production of ROS and leakage of mtDNA to the cytoplasm”.
